Measurements as given in patent US11180487B2, “Substituted cyanoindoline derivatives as NIK inhibitors” (Janssen Pharmaceutica NV, priority 2016, dated 2021).
Read-outs that look alike come from different tables or passages of the source.

How the values were obtained:
[1] = system: JJN-3 (NIK translocated) multiple myeloma cells; test: Antiproliferative activity on JJN-3 multiple myeloma cells (CellTiter-Glo, 96 hr), Biological Assay C; format: cell-based, human; details: JJN-3 (NIK translocated) cells, averaged values, read-out: JJN-3 Proliferation inhibition (IC50 (nM))
In short: (§1)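 Growth read-out was CellTiter-Glo luminescence after 96 h compound exposure, given as percent of no-drug control after subtracting a blank of cells read at dosing. Compounds ran as 9-point serial 1:3 dilutions in 0.3% DMSO, duplicate wells, on JJN-3 (15000/well) or KMS12-BM (20000/well) cells in RPMI 1640/10% FCS.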

[2] = system: KMS12-BM (NIK WT) multiple myeloma cells; test: Antiproliferative activity on KMS12-BM multiple myeloma cells (CellTiter-Glo, 96 hr), Biological Assay C; format: cell-based, human; details: averaged values, read-out: KMS-12 Proliferation inhibition (IC50 (nM))
In short: as §1

[3] = biological target: recombinant human NF-kappaB-inducing kinase (NIK/MAP3K14) (Homo sapiens, UniProt Q99558); test: Inhibition of auto-phosphorylation of recombinant human NIK/MAP3K14 activity (AlphaScreen), Biological Assay A; format: biochemical; details: averaged values over all measurements on all batches
In short: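 AlphaScreen detection with anti-phospho-IKK Ser176/180 antibody plus Protein A acceptor/glutathione donor beads after 1 h, 25 °C reaction of 0.2 nM GST-tagged kinase, 25 μM ATP and compound. Buffer: 50 mM Tris pH 7.5, MgCl2, EGTA, DTT, vanadate; 1% DMSO. IC50 fitted sigmoidally to % inhibition.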

[4] = system: P-IKKα levels in L363 (NIK translocated multiple myeloma) cells; test: Effect of compounds on P-IKKα levels in L363 cells (Mesoscale sandwich immuno-assay), Biological Assay B; format: cell-based, human; details: 2 hr treatment, averaged values, read-out: Inhibition of pIKKα_L-363 (IC50 (nM))
In short: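 P-IKKα in lysates quantified by Mesoscale sandwich immunoassay after 2 h compound exposure in 1% DMSO, duplicate wells, 8-point 1:3 series. Human L363 cells had been preincubated 24 h with BAFF (1 μg/ml stock). Blank (10 μM ADS125117) subtracted; IC50 fitted sigmoidally to % inhibition of control.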

recombinant human NF-kappaB-inducing kinase (NIK/MAP3K14), sequence (Q99558 whole entry): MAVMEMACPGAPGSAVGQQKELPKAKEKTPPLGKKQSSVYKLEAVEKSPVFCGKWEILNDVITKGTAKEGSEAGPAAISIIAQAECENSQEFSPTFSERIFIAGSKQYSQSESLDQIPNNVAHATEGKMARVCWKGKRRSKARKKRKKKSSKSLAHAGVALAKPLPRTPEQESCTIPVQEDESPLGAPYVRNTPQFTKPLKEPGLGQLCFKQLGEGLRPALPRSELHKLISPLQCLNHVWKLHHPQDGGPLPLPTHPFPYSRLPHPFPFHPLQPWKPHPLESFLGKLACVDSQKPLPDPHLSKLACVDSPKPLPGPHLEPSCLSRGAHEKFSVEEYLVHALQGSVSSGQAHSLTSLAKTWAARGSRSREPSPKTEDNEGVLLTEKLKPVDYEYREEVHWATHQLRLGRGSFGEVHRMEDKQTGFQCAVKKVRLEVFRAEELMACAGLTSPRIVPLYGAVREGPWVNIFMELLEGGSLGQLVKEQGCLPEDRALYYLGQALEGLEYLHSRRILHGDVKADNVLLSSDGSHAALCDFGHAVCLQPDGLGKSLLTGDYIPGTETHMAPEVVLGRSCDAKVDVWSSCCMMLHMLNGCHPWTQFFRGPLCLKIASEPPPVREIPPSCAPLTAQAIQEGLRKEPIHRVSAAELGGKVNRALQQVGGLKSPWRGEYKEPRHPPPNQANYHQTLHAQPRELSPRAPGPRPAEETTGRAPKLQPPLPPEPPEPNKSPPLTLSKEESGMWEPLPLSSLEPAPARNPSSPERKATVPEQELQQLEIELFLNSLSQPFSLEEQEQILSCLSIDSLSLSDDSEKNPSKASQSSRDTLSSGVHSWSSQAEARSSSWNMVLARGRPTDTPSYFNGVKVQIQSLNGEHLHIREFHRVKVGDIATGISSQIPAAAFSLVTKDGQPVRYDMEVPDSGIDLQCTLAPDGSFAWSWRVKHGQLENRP

IC50 ([1]; Homo sapiens, JJN-3, 96 h) [nM]	melting point [°C]	IC50 ([2]; Homo sapiens, KMS-12-BM, 96 h) [nM]	IC50 [3] [nM]	IC50 ([4]; Homo sapiens, L-363, 2 h) [nM]	IC50 [1] [nM]	IC50 [2] [nM]	IC50 [4] [nM]	SMILES
178	235	~7590	4.9	12.9	–	–	–	CNC(=O)c1cc(Nc2nccc(-c3cc(C#N)c4c(c3)[C@@](C)(CO)CN4)n2)c(F)cc1OC1CC1 [Compound 157]
–	190	–	1.4	–	330	~7940	3.2	Cc1ccc(C#N)cc1Nc1nccc(-c2cc(C#N)c3c(c2)[C@@](C)(CO)CN3)n1 [Compound 129]
87	184	> 10000	1.3	32.4	–	–	–	C[C@]1(CO)CNc2c(C#N)cc(-c3ccnc(Nc4cc(C#N)ccc4OCCO)n3)cc21 [Compound 8]
14	240	> 10000	7.8	1	–	–	–	Cc1c(CN2CC(F)(F)C2)cc(C#N)cc1Nc1nccc(-c2cc(C#N)c3c(c2)[C@@](C)(CO)CN3)n1 [Compound 196]
74	298	> 10000	4.3	33.1	–	–	–	CN1CCN(Cc2ccc(C#N)cc2Nc2nccc(-c3cc(C#N)c4c(c3)[C@@](C)(CO)CN4)n2)CC1 [Compound 226]
33	223	~240	6	4.8	–	–	–	Cc1c(CN2CC(C)OC(C)C2)cccc1Nc1nccc(-c2cc(C#N)c3c(c2)[C@@](C)(CO)CN3)n1 (stereo partly drawn) [Compound 197]
22	188	> 10000	1.6	1.7	–	–	–	Cc1c(CO)cc(C#N)cc1Nc1nccc(-c2cc(C#N)c3c(c2)[C@@](C)(CO)CN3)n1 [Compound 193]
182	124	~1150	4	16.2	–	–	–	COCCCc1ccc(C#N)cc1Nc1nccc(-c2cc(C#N)c3c(c2)[C@@](C)(CO)CN3)n1 [Compound 74]
3240	238	> 10000	14.1	83.2	–	–	–	C[C@]1(CO)CNc2c(C#N)cc(-c3ccnc(Nc4cc(C#N)ccc4CN4CCOCC4)n3)cc21 [Compound 224]
41	260	> 10000	1.7	~0.66	–	–	–	COC(=O)c1cc(C#N)cc(Nc2nccc(-c3cc(C#N)c4c(c3)[C@@](C)(CO)CN4)n2)c1C [Compound 200]
457	133	2690	3.9	60.3	–	–	–	Cc1ccc(OCCNC2CC2)c(Nc2nccc(-c3cc(C#N)c4c(c3)[C@@](C)(CO)CN4)n2)c1 [Compound 235]
14	294	~5890	6.6	1.8	–	–	–	Cc1c(Nc2nccc(-c3cc(C#N)c4c(c3)[C@@](C)(CO)CN4)n2)cc(C#N)cc1C(=O)N1CCN(C)CC1 [Compound 203]
–	262	–	0.7	–	170	4360	3	Cc1ccc(C#N)cc1Nc1nccc(-c2cc(C#N)c3c(c2)[C@@](C)(CO)CN3)n1 [Compound 133]
258	162	550	15.5	15.5	–	–	–	CC(C)Oc1ccc(C#N)cc1Nc1nccc(-c2cc(C#N)c3c(c2)[C@@](C)(CO)CN3)n1 [Compound 16]
33	212	> 10000	8.7	2.2	–	–	–	Cc1ccc(C#N)cc1Nc1nccc(-c2cc(C#N)c3c(c2)[C@@](C)(COC(=O)[C@@H](C)N)CN3)n1 [Compound 141]
437	150	> 10000	3.5	33.1	–	–	–	Cc1ccc(C(=O)NC2CCN(C)C2)cc1Nc1nccc(-c2cc(C#N)c3c(c2)[C@@](C)(CO)CN3)n1 (mixture of isomers) [Compound 163]
124	192	1000	15.2	209	–	–	–	CN1CCC(Oc2ccc(Cl)cc2Nc2nccc(-c3cc(C#N)c4c(c3)C(C)(C)CN4)n2)CC1 [Compound 80]

IC50 ([1]; Homo sapiens, JJN-3, 96 h) [nM]	melting point [°C]	IC50 ([2]; Homo sapiens, KMS-12-BM, 96 h) [nM]	IC50 [3] [nM]	IC50 ([4]; Homo sapiens, L-363, 2 h) [nM]	IC50 [1] [nM]	IC50 [2] [nM]	IC50 [4] [nM]	SMILES
96	223	~3160	7.9	32.4	–	–	–	C[C@]1(CO)CNc2c(C#N)cc(-c3ccnc(Nc4cc(C#N)ccc4CN4CC(F)(F)C4)n3)cc21 [Compound 227]
63	222	~550	4.6	5.6	–	–	–	[2H]C([2H])(c1cccc(Nc2nccc(-c3cc(C#N)c4c(c3)[C@@](C)(CO)CN4)n2)c1C)N1CC(C)OC(C)C1 (stereo partly drawn) [Compound 198]
1180	250	537	72.4	2950	–	–	–	Cc1ccc(C2CCN(C)CC2)cc1Nc1nccc(-c2cc(C#N)c3c(c2)[C@@](C)(CO)CN3)n1 [Compound 192]
955	116	> 10000	8.9	18.6	–	–	–	Cc1cc(F)c(C(=O)NC2CCN(C)C2)cc1Nc1nccc(-c2cc(C#N)c3c(c2)[C@@](C)(CO)CN3)n1 (single isomer, unassigned) [Compound 166]
389	234	> 10000	6.5	10.7	–	–	–	C[C@]1(CO)CNc2c(C#N)cc(-c3ccnc(Nc4cc(CO)c(F)cc4OC4CC4)n3)cc21 [Compound 208]
1120	224	~5250	3.6	6	–	–	–	CNC(=O)c1cc(Nc2nccc(-c3cc(C#N)c4c(c3)[C@@](C)(CO)CN4)n2)c(F)cc1F [Compound 165]
1100	218	> 10000	4.1	103	–	–	–	Cc1ccc(C#N)cc1Nc1nccc(-c2cc(C#N)c3c(c2)[C@](C)(CO)CN3)n1 [Compound 65]
76	170	> 10000	6.9	7.4	–	–	–	Cc1c(Nc2nccc(-c3cc(C#N)c4c(c3)[C@@](C)(CO)CN4)n2)cccc1C(=O)N1CC(C)OC(C)C1 (stereo partly drawn) [Compound 199]
132	254	> 10000	14.5	14.8	–	–	–	C[C@]1(CO)CNc2c(C#N)cc(-c3ccnc(Nc4cc(C#N)c(F)cc4OC4CC4)n3)cc21 [Compound 209]
407	156	> 10000	251	20.9	–	–	–	CC(=O)OC[C@@]1(C)CNc2c(C#N)cc(-c3ccnc(Nc4cc(C#N)ccc4OCC4CC4)n3)cc21 [Compound 128]
151	200	~8910	112	~6.9	–	–	–	Cc1ccc(C#N)cc1Nc1nccc(-c2cc(C#N)c3c(c2)[C@@](C)(COC(=O)C(C)C)CN3)n1 [Compound 126]
78	186	> 10000	19.9	5.2	–	–	–	Cc1ccc(C#N)cc1Nc1nccc(-c2cc(C#N)c3c(c2)[C@@](C)(COC(=O)CN2CCOCC2)CN3)n1 [Compound 146]
81	207	~4680	1	2.3	–	–	–	Cc1cc(CCCN)c(C#N)cc1Nc1nccc(-c2cc(C#N)c3c(c2)[C@@](C)(CO)CN3)n1 [Compound 170]
66	268	~9550	5	13.2	–	–	–	Cc1c(Nc2nccc(-c3cc(C#N)c4c(c3)[C@@](C)(CO)CN4)n2)cccc1C(=O)N1CCN(C2COC2)CC1 [Compound 207]
4790	206	> 10000	11.2	64.6	–	–	–	Cc1ccc(C(=O)N(C)C)cc1Nc1nccc(-c2cc(C#N)c3c(c2)[C@@](C)(CO)CN3)n1 [Compound 160]
27	226	~191	1.8	2.8	–	–	–	Cc1cc(C2CCN(C)CC2)c(C#N)cc1Nc1nccc(-c2cc(C#N)c3c(c2)[C@@](C)(CO)CN3)n1 [Compound 175]
